Measured values as given in patent US4800194A, “Acylphosphorotriamides useful as lipid-altering agents” (priority 1986, dated 1989).

Legend:
[1] = system: pseudocholinesterase; assay: Multiple dose study in hyperlipidemic guinea pigs: plasma pseudocholinesterase activity (Test Method 2, Example 29); assay type: in vivo, guinea pig; settings: 2.5 mg/kg i.p. once daily
Source text: (§1) Male Hartley guinea pigs (Elm Hill Breeding Labs., Chelmsford, MA or Charles River, Wilmington, MA) was used in all experiments unless otherwise specified. The animals were maintained on a normal diet of rabbit pellets (Purina Rabbit Chow 5321, Ralston Purina, St. Louis, MO) and water containing 0.1% ascorbic acid ad libitum. For special studies in the hyperlipidemic guinea pig model, the animals were maintained on the high cholesterol diet described in this report and water containing 0.1% ascorbic acid ad libitum.
(§2) Individual animals were identified by ear and cage markings. The dose of drug or placebo was adjusted daily for changes in the weight of the guinea pigs. Blood samples were collected in EDTA Vacutainers by open chest cardiac puncture under carbon dioxide anesthesia from guinea pigs which had been fasted overnight. The animals were then sacrificed by CO2 inhalation. Blood samples were centrifuged at 2000 rpm for 15 min. in an IEC centrifuge (International Equipment Co., Boston, MA) with a 240 rotor for isolation of plasma. Lipoprotein analyses of plasma were carried out on the same day as the blood collection. Assays of pseudocholinesterase activity were carried out within a week of blood collection on plasma samples which had been stored at 4° C.
The assay method used was based on the procedure described in Ellman, G. L., K. D. Courtney, V. Andres & R. M. Featherstone, "A New and Rapid Colorimetric Determination of Acetylcholinesterase Activity", Biolchemical Pharmacology, Vol. 7 (1961), pp. 88-95. Reactions were carried out at 35° C. in pH 7.2 NaH2 PO4 50 mM buffer containing 5 mM butyrylthiocholine iodide (substrate) and 0.25 mM 5,5'-dithiobis-[2-nitrobenzoic acid] (chromogen). The rate of change of absorbance at 405 nm with time was monitored by means of a Cary 16 spectrophotometer (Varian Associates, Walnut Creek, CA) or a Beckman DU-8B spectrophotometer (Beckman Instruments, Inc., Palo Alto, CA). Corrections were made for non-enzymic hydrolysis of substrate.
Enzyme Buffer: 6.90 g (50 mmol) NaH2 PO4.H2 O+[…] (0.25 mmol) 5,5'-dithiobis-(2-nitrobenzoic acid). The reagents were dissolved in Milli-Q purified distilled water, titrated to pH 7.2 with 1N NaOH, and diluted to one liter with water.
Substrate: 0.2476 g (0.780 mmol) S-butyrylthiocholine iodide (BTC). The substrate was dissolved in 5 ml of Milli-Q purified distilled water. [BTC]=156 mM.
Into a 1-cm pathlength cuvette was placed 3.0 ml of enzyme buffer. At least 10 min. was allowed for temperature equilibration. A 100 μl aliquot of substrate was added to the cuvette, the solution was mixed and about 3 min. was allowed for determination of the non-enzymic rate of substrate hydrolysis before the enzymic reaction was initiated by addition of 25 μl of plasma. The increase in absorbance at 405 nm was measured vs. a blank containing enzyme buffer.
Into a 1-cm pathlength cuvette was placed 3.0 ml of enzyme buffer and 100 μl of substrate. The solution was mixed and about 10 min. was allowed for temperature equilibration. The reaction was initiated by addition of 25 μl of plasma. The increase in absorbance at 405 nm was measured vs. a blank containing enzyme buffer and substrate. No additional correction for non-enzymic substrate hydrolysis was necessary.
(§3) A 1:15 mixture of cholesterol:corn oil was prepared by adding 25 g of USP cholesterol (Sigma Chemical Company, St. Louis, MO) to 375 g of corn oil (Mazola, Best Foods, CPC International, Inc., Englewood Cliffs, NJ). The mixture was stirred, sonicated, and heated in a hot water bath until the cholesterol completely dissolved. It was necessary to keep the mixture warm (50°-60° C.) in order to prevent congealing.
Batches of feed were prepared by adding 160 g of the cholesterol-corn oil solution to 840 g of Purina Rabbit Chow 5321. The pellets and lipid mixture were thoroughly mixed in a 2-liter or 3-liter Erlenmeyer flask to ensure uniform coating of the pellets. The feed was then stored at room temperature until needed. […]

[2] = system: Hyperlipidemic Guinea Pigs; assay: Multiple dose study in hyperlipidemic guinea pigs: plasma LDL/HDL ratio by lipoprotein electrophoresis (Test Method 2, Example 29); assay type: in vivo, guinea pig; settings: 2.5 mg/kg i.p. once daily
Source text: as §1, §2
Freshly prepared samples of EDTA plasma were analyzed for lipoproteins with the Redi-Disc Lipoprotein Electrophoresis Kit (Miles Laboratories, Elkhart, IN) by the procedure recommended in the package insert supplied in the kit.
Redi-Disc Lipoprotein Gel Tubes, polyacrylamide 3%, buffer, preservative.
Redi-Disc Lipoprotein Loading Gel, acrylamide 2.5 g/dl., N,N'-methylenebisacrylamide 0.6 g/dl, sudan black B 13 mg/dl, catalyst, stabilizer, buffer.
Redi-Disc Lipoprotein Buffer, Trishydroxymethylaminomethane 27% w/w, boric acid 73% w/w, pH of solution 7.4-7.9 (11 g diluted to 1200 ml with water).
The gel tubes were removed from the storage buffer and shaken to remove excess buffer. A 25 μl aliquot of plasma was added to each tube and mixed with 200 μl of loading gel. The loading gel was photopolymerized for 30-40 min. under a fluorescent light. The gel tubes were placed in the electrophoresis apparatus (Buchler Instruments, Fort Lee, NJ) and Redi-Disc Liproprotein Buffer was then added to the upper and lower chambers of the apparatus. The current was adjusted to 5 mA per gel tube. Electrophoresis was stopped when the HDL band was about 4-5 mm from the bottom of the gel tube.
The gels were stored in water for at least 30 min. following electrophoresis to allow the lipoprotein zones to spread. The gels were scanned at 615 nm in either a Beckman Acta C111 spectrophotometer or a Beckman DU-8B spectrophotometer. The areas of the lipoprotein peaks (VLDL, LDL, and HDL) were determined by gravimetric analysis (cut and weighed) on the Acta C111 or by electronic integration on the DU-8B.
as §3
Batches of feed were prepared by adding 160 g of the cholesterol-corn oil solution to 840 g of Purina Rabbit Chow 5321. The pellets and lipid mixture were thoroughly mixed in a 2-liter or 3-liter Erlenmeyer flask to ensure uniform coating of the pellets. The feed was then stored at room temperature until needed.
Two groups of male Hartley Guinea pigs were maintained on the high cholesterol diet described above and water containing 0.1% ascorbic acid ad libitum. One group was treated once daily with a freshly prepared solution of test compound 4, N-(diaminophosphinyl)-4-fluorobenzamide, (1.0 mg/ml in 0.9% saline solution) at 2.5 mg/kg by intraperitoneal injection for 14 days. […]

NP(N)(=O)NC(=O)c1ccc(F)cc1 [Test Compound 4, N-(diaminophosphinyl)-4-fluorobenzamide]
% PChE Inhibition (Compared to Control) ([1]; day 1): 51.6%
% PChE Inhibition (Compared to Control) ([1]; day 3): 45.0%
% PChE Inhibition (Compared to Control) ([1]; day 7): 58.6%
% PChE Inhibition (Compared to Control) ([1]; day 10): 65.0%
% PChE Inhibition (Compared to Control) ([1]; day 14): 69.0%
plasma pseudocholinesterase activity vs saline-treated control ([1]; high cholesterol diet, result in words): substantially lower plasma pseudocholinesterase activity
LDL/HDL ratio vs saline-treated control ([2]; 14th day of treatment, result in words): significantly lower (p<0.05)
LDL/HDL ([2]; day 1, control 2.45): 1.91
LDL/HDL ([2]; day 3, control 2.28): 2.43
LDL/HDL ([2]; day 7, control 4.25): 4.08
LDL/HDL ([2]; day 10, control 3.23): 2.75
LDL/HDL ([2]; day 14, control 2.60, significantly different from control (p < 0.05)): 1.50
